Assay results reported in US12527782B2, “Use of hexokinase 2/mitochondria-detaching compounds for treating hexokinase-2 (HK2)-expressing cancers” (Vidac Pharma Ltd., priority 2016, dated 2026).

Key:
HeLa cells [1] = experiment: Apoptosis induction in HeLa cells (FACS, propidium iodide and annexin V); assay type: cell-based; details: Homo sapiens, 48 hr incubation
Protocol: FIG. 12. Apoptosis induction in HeLa cells following 48 hr incubation with Compound (1) IC50=70 nM. Apoptosis was evaluated by FACS, labeling the cells with propidium iodide and annexin V.
FIG. 13. Apoptosis induction in HeLa cells following 48 hr incubation with Compound (1). IC50=70 nM. Apoptosis was evaluated by FACS, labeling the cells with propidium iodide and annexin V.

HeLa cells [2] = experiment: Lactate levels in culture media of HeLa cells (BioVision kit); assay type: cell-based; details: 20 μM
Protocol: FIG. 14. Lactate levels in the culture media of HeLa cells incubated with 20 μM Compound (1). Lactate levels were assayed with a BioVision kit (Catalog #K607-100).

## O=C(N1CCN(c2ccccc2)CC1)N1c2ccccc2Oc2ccccc21 [Compound (1)]
HeLa cells [1]
  IC50: 70 nM
HeLa cells [2]
  lactate levels in the culture media: lowered lactate levels
